Format in all cases: in vivo, Göttingen-minipigs
Data set [1] relates to anaesthetised minipigs. Put plainly: Mean anal resting pressure (MARP) in anaesthetised minipigs after topical administration to the anoderm. The note with it: for effect on internal anal sphincter pressure and blood pressure: pigs in vivo. As for the experimental part: • a) Placebo in 4% w/w gel • b) 0.3% by weight 1R,2S-methoxamine in 4% w/w gel • c) 1% by weight 1R,2S-methoxamine in 4% w/w gel • d) 3% by weight 1R,2S-methoxamine in 4% w/w gel • The 4% w/w gel comprises 4 g of hydroxypropylmethyl cellulose in 96 ml of 0.5M acetate buffer. 1% by weight 1R,2S-methoxamine in 4% w/w gel comprises 1 g of 1R,2S-methoxamine in 99 g of the 4% gel. Animals/Animal Maintenance
Göttingen-minipigs obtained from Ellegaard Göttingen Minipigs ApS, Soro Landevej 302, DK-4261 Dalmose, Denmark were used for the investigation. […] Four male animals were used. Animal no. 2 was replaced by animal no. 4, see below.
The minipigs were anaesthetised with a chloralose-urethane mixture (ratio 1+5). Additional anaesthesia was given when needed. To ensure a stable general condition of the minipig, blood gases and pH-value were measured in blood obtained from the right or left a. femoralis using a blood gas analyser ABL 70 (Radiometer, Copenhagen, Denmark) before start of experiment. Ringer solution (5 ml/kg b.w./h) was given continuously to compensate for fluid losses. The body temperature of the animals was maintained at 38° C. throughout the experiment of external heating.
(§1) The test substances were administered topically to the anoderm using a volume of 0.5 ml/animal. The interval between each observation period was 20 minutes. The administration was performed employing a 1 ml syringe inserted approximately 1 cm into the anal canal. The test substances were administered slowly while the syringe was rotated. After the preparation and a period of at least 15 minutes for stabilisation of the circulatory functions, the animals were treated with the placebo or the selected dose levels of the test substance by administration to the anoderm.
The anal resting pressure was measured by introduction of a manometric probe (Unisensor Microtipcatheter 8104-00-9409-D; Medical Measurement Systems b.v., Collosseum 25, NL-7521P.V. Enschede, The Netherlands) into the rectum three times. The anal resting pressure taken as a mean of these three measurements (MARP) was recorded with a Rikadenki Multipenrecorder.

In data set [2] the test system is anaesthetised minipigs. Briefly: Peripheral arterial blood pressure in anaesthetised minipigs after topical administration to the anoderm. The note with it: 0.5 ml of 0.3%, 1%, 3% gels. As to the method: as §1
An intraarterial indwelling catheter (size 0.8×1.4 mm, B. Braun Melsungen AG, D-34212 Melsungen, Germany) was connected to a pressure transducer (DTX, Pfrimmer-Viggo, Erlangen, Germany) recording the systolic and diastolic arterial blood pressure in the right or left a. femoralis. The signal was boosed by a Hellige Servomed SMV 178 T amplifier (Hellige GmbH, D-79100 Freiburg, Germany). The blood pressure was recorded and monitored with a Hellige Cardiognost EK 512 P (paper speed: 2.5 mm/sec). Systolic and diastolic blood pressure [mmHg] were determined and the mean pressure was calculated according to the following formula: Mean blood pressure [mmHg]=(systolic pressure+(2×diastolic pressure))/3 Heart Rate and Electrocardiography […]

Data set [3] is described as follows: Methoxamine plasma levels in minipigs after topical administration to the anoderm. The note with it: for mean peak plasma levels: 0.5 ml topical, two pigs. As to the method: as §1
Blood samples (5 ml/time-point) were taken immediately before and 10, 20, 40, 60, 90, and 120 minutes after start of administration, and were collected into lithium-heparin containers. The blood samples were immediately cooled at +2° C. to +8° C. by the use of an IsoTherm-Rack system (Eppendorf-Netheler-Hinz GmbH, D-22331 Hamburg, Germany) and the whole blood was processed for […]. Plasma was prepared by centrifugation (5 min, 4000 rpm, at +5° C.) and split into aliquots of approx. 1 ml each. Both plasma aliquots were immediately frozen at −80° C. at least and stored at this temperature until dispatch of one aliquot on dry ice for analysis.
The samples were analysed for the methoxamine plasma levels. The results are presented in Appendix 3.

The test system of a further data set is anoderm. Put plainly: Macroscopical inspection of the anoderm. The note with it: 0.3%, 1%, or 3%. As for the experimental part:
A macroscopical inspection of the anoderm was carried out during the experiments. Any obvious irritation and/or erythema caused by the fairly low pH value of the test substance formulation was reported.

Where “and” joins values, the source holds several entries; their conditions need not be identical. Equal values may be shown once.

The text below walks through data of US8613948B2, “Treatment of faecal incontinence and other conditions with 1R, 2S-methoxamine” (Norgine BV, priority 2001, dated 2013).

With `COc1ccc(OC)c([C@@H](O)C(C)N)c1` (single isomer, unassigned) [1R,2S-methoxamine], the “increase in MARP compared to the start value” in the data set on anaesthetised minipigs [1] (0.5 ml of 0.3% gel) was found to be 73%. For the same compound, the “period of MARP increase” value in the data set with anaesthetised minipigs [1] (0.5 ml of 0.3% gel) stood at 110 min. For the same compound, the “start of MARP increase after administration” value in the data set on anaesthetised minipigs [1] (0.5 ml of 0.3% gel) was determined as 5 min. Further, the MARP in the data set with anaesthetised minipigs [1] (0.5 ml of 0.3% gel, topical to anoderm, average) is 50 mmHg; in the data set on anaesthetised minipigs [1] (0.5 ml of 1% gel, average), 64 mmHg; in the data set on anaesthetised minipigs [1] (0.5 ml of 3% gel), 70 mmHg; in the data set with anaesthetised minipigs [1] (0.5 ml of 3% gel, listed as IR,2S-methoxamine), “approx. 70 mmHg”. For the same compound, the “increase in MARP” value in the data set on anaesthetised minipigs [1] (0.5 ml of 1% gel) was 227%. Also, the “time after application to MARP increase” value in the data set with anaesthetised minipigs [1] (0.5 ml of 1% gel) is reported as no more than 20 min. For the same compound, the “effect on internal anal sphincter pressure and blood pressure” value is “increase internal anal sphincter pressure without any effect on blood pressure” in the data set on anaesthetised minipigs [1] (0.5 ml of gel containing 1% or 0.3% by weight (5 mg and 1.5 mg), topical); “increase internal anal sphincter pressure without any effect on blood pressure” with anaesthetised minipigs [1] (gels containing 1% by weight and even as little as 0.1% by weight). In addition, the “systolic, diastolic or mean blood pressure” value with anaesthetised minipigs [2] is on record as “not influenced”. The maximum plasma levels in data set [3] (0.3% formulation) is 6 ng methoxamine/ml plasma; in data set [3] (1% formulation), 10 ng methoxamine/ml plasma; in data set [3] (3% formulation) it was 56 ng methoxamine/ml plasma. The “time of peak plasma levels” value in data set [3] (0.3% gel) came out at 40 min. Also, the “mean peak plasma levels” value in data set [3] (0.3% gel) was 4.90 ng/mL and 6.97 ng/mL; in data set [3] (1.0% gel), 9.88 ng/mL and 11.0 ng/mL; in data set [3] (3.0% gel) it was 50.4 ng/mL and 61.3 ng/mL. Also, the “time of maximum plasma levels following application” value in data set [3] (0.3%, 1% and 3% formulations) was “approximately 40 minutes”. In the data set on anoderm, the “macroscopic inspection: pathological changes” value is listed as “No pathological changes were observed”.
